# Columns and labels:
# p-STAT3 = p-STAT3 staining of CT26 tumors after treatment; type: in vivo, mouse; settings: vs control group
# Description: (§1) All BALB/c mice (Taconic, Hudson, N.Y., USA) were housed in Association for Assessment and Accreditation of Laboratory Animal Care approved facilities in static microisolator cages. Murine MSS-status colon carcinoma CT26 cells (ATCC CRL-2639) and murine breast carcinoma cells 4T1 (ATCC CRL-2539) were purchased from American Type Culture Collection (ATCC, Manassas, Va., USA), and grown in RPMI-1640 medium (ATCC) supplemented with 10% heat-inactivated fetal calf serum. After harvesting during exponential growth, tumors were initiated by subcutaneously implanting 3×10^5 CT26 tumor cells into the right dorsal flank of each 8-12 week old female BALB/c mouse. […] Body weight and clinical signs were monitored throughout the course of the treatment in accordance with the Institutional Animal Care and Use Committee approved protocols. Drug efficacy was analyzed by measuring tumor volume in mm^3 calculated by multiplying 0.5×width^2×length. […]
# (§2) At the end of treatment, tumors were harvested from euthanized mice. […] After mounting in ProLong mounting medium containing DAPI (Invitrogen), the slides were examined on a Zeiss Axio Imager M2 upright fluorescence microscope with a 20× objective and analyzed with Zen software.
# CT26 tumor cells = assay: Tumor sphere formation of cells dissociated from treated CT26 tumors; type: cell-based, mouse; settings: 1000 live tumor cells from treated tumors, 10 days in culture, vs control
# Method: Portions of tumor tissues were dissociated into a single cell suspension by enzymatic digestion with DMEM (Gibco) containing 200 U/mL Collagenase (Sigma) and 100 U/mL DNAse I (Sigma) at 37° C. for 30 minutes. Cells were then filtered through 40 μm strainers and incubated for 5 min at room temperature in ACK lysis buffer (Thermo Fisher) to remove red blood cells. 1000 live tumor cells, as assessed by Trypan blue (Gibco) staining, were then suspended in 1 mL sphere medium and plated on a low-attachment cell culture 12-well plate in triplicate. Cancer sphere culture medium included B-27 (Gibco), 20 ng/ml EGF (R&D), 10 ng/ml basicFGF (R&D), 0.4% BSA Gemini, and 0.3% agarose in DMEM/F12 (Gibco). After 10 days in culture, the number of tumor spheres was counted.
# [1] = test system: IL-6 and other STAT3 target genes; assay: STAT3 target gene expression in HeLa cells; type: cell-based
# IL-6 = IL-6 level in colorectal cancer xenograft model (SW480); type: in vivo, mouse; settings: SW480 xenograft, 0, 1, 2, 4, 8, or 24 hours after treatment
# Method: (§3) At the end of treatment, tumors were harvested from euthanized mice. Part of the dissected tumors were fixed overnight in 3.7% or 10% neutral buffered formaldehyde at 4° C., and then paraffin embedded, cut to 4-5 micron sections, and affixed onto positively charged slides. After baking and deparaffinization, the slides with tumor or control tissues were incubated in a 10 mM sodium citrate solution pH=6.0 for antigen retrieval at 98° C. Afterwards, slides were probed with primary antibodies against P-STAT3 (Tyr705) (rabbit, Cell Signaling, 1:100), β-CATENIN (mouse, Santa Cruz, 1:400), IL-6 (mouse, Novus Biol., 1:100), PD-L1 (rabbit, Cell Signaling, 1:100), PCNA (mouse, Santa Cruz, 1:5000), CD8a (rabbit, Santa Cruz, 1:30), CD44 (rat, BioLegend, 1:50), CD44 (mouse, Cell Signaling, 1:100), CD133 (mouse, Miltenyi, 1:100), IDO1 (mouse, Millipore 1:100), or/and CD3 (rabbit, Abcam, 1:100) at 4° C. overnight, and then AlexaFluor fluorescent dye-conjugated secondary antibodies (Invitrogen, 1:300 or 1:500) at room temperature for one hour. After mounting in ProLong mounting medium containing DAPI (Invitrogen), the slides were examined on a Zeiss Axio Imager M2 upright fluorescence microscope with a 20× objective and analyzed with Zen software.
# CD44 = CD44 protein expression in ovarian cancer xenograft model (SKOV-3); type: in vivo, mouse; settings: SKOV-3 xenograft, 0, 1, 2, 4, 8, 16, or 24 hours after treatment
# Method: as §3
# IDO1 [2] = assay: IDO1 protein levels in SKOV3 cells; type: cell-based
# IDO1 [3] = assay: Endogenous IDO1 mRNA in SKOV3 cells (qPCR); type: cell-based; settings: 6 or 24 hour, 1 μM or 2 μM, normalized to GAPDH
# Description: Specifically, RNA was isolated, reverse transcribed, and the cDNA was used in a qPCR assay to determine the mRNA levels for IDO1. Data was normalized to GAPDH.
# PD-L1 = PD-L1 expression in tumor cells in the CT26 model; type: in vivo, mouse
# Description: as §1, §2
# B-cell proliferation = B-cell proliferation in lymph node adjacent to xenograft B16F10 tumor (PCNA staining); type: in vivo, mouse
# Description: The tissues were stained with PCNA.
# CD8^+ T cells = assay: Tumor infiltrating CD8+ T cells in Apc^Min/+ mouse model of colon cancer (immunofluorescence); type: in vivo, Apc^Min/+ C57BL/6J mice; settings: BBI608 200 mg/kg p.o. q.d. 4 days, vs control group
# Method: At the end of treatment, tumors were harvested from euthanized mice. Part of the dissected tumors were fixed overnight in 3.7% or 10% neutral buffered formaldehyde at 4° C., and then paraffin embedded, cut to 4-5 micron sections, and affixed onto positively charged slides. After baking and deparaffinization, the slides with tumor or control tissues were incubated in a 10 mM sodium citrate solution pH=6.0 for antigen retrieval at 98° C. […] After mounting in ProLong mounting medium containing DAPI (Invitrogen), the slides were examined on a Zeiss Axio Imager M2 upright fluorescence microscope with a 20× objective and analyzed with Zen software.
# All animals were housed in Association for Assessment and Accreditation of Laboratory Animal Care-approved facilities in static microisolator cages. […] Body weight and clinical signs were monitored throughout the course of the treatment. […]
# CD8^+ levels were analyzed by immunofluorescence.
# [4] = test system: tumor-infiltrating T cells (TILs); assay: Tumor-infiltrating T cells in CT26 tumors (CD3 immunofluorescence); type: in vivo, mouse; settings: vs control tumors
# Description: as §1, §2
structure (smiles),measurement,setting,value
"CC(=O)c1cc2c(o1)C(=O)c1ccccc1C2=O [BBI608, 2-acetylnaphtho[2,3-b]furan-4,9-dione]",p-STAT3 level in CT26 tumors,p-STAT3,reduced p-STAT3 levels
same,number of tumor spheres,CT26 tumor cells,significantly lower numbers of spheres than control
same,IL-6 and other STAT3 target genes expression,[1],downregulated
same,IL-6 level,IL-6,reduced IL-6 level in a time-dependent manner
same,CD44 protein expression,CD44,inhibited CD44 protein expression in a time-dependent manner
same,IDO1 protein levels,IDO1 [2]; 8 or 24 hours,reduced
same,IDO1 protein levels,IDO1 [2]; 3 hours,reduced
same,endogenous IDO1 expression (mRNA),IDO1 [3],inhibited
same,PD-L1 expression in tumor cells,PD-L1,reduced
same,B-cell proliferation in lymph node adjacent to tumor,B-cell proliferation,multiple centers of B-cell proliferation
same,number of tumor infiltrating CD8^+ T cells,CD8^+ T cells,increased the number of tumor infiltrating CD8^+ T cells significantly
same,number of tumor-infiltrating T cells (TILs),[4],tended to increase
